According to PubChem BioAssay (NCI):
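Five compound concentrations were applied to cells in 96-well plates for 48 hours; endpoints were derived by simple linear interpolation of the resulting dose-response curve. TGI marks complete inhibition of growth.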

How the values were obtained:
Test in all cases: DTP human tumour cell line panel, 48 h
SK-MEL-2 melanoma = tested on: SK-MEL-2 melanoma
MALME-3M melanoma = tested on: MALME-3M melanoma
OVCAR-3 ovarian = tested on: OVCAR-3 ovarian
U251 CNS = tested on: U251 CNS
M14 melanoma = tested on: M14 melanoma
EKVX NSCLC = tested on: EKVX NSCLC
SK-MEL-5 melanoma = tested on: SK-MEL-5 melanoma
A498 renal = tested on: A498 renal
DU-145 prostate = tested on: DU-145 prostate
OVCAR-4 ovarian = tested on: OVCAR-4 ovarian
OVCAR-5 ovarian = tested on: OVCAR-5 ovarian
RPMI-8226 leukemia = tested on: RPMI-8226 leukemia
KM12 colon = tested on: KM12 colon
LOX IMVI melanoma = tested on: LOX IMVI melanoma
CAKI-1 renal = tested on: CAKI-1 renal
TK-10 renal = tested on: TK-10 renal
SW-620 colon = tested on: SW-620 colon
RXF 393 renal = tested on: RXF 393 renal
NCI-H460 lung = tested on: NCI-H460 lung
MDA-MB-435 = tested on: MDA-MB-435
OVCAR-8 ovarian = tested on: OVCAR-8 ovarian
MOLT-4 leukemia = tested on: MOLT-4 leukemia
SNB-19 CNS = tested on: SNB-19 CNS
MDA-MB-231 breast = tested on: MDA-MB-231 breast
SR leukemia = tested on: SR leukemia
SNB-75 CNS = tested on: SNB-75 CNS
MCF7 breast = tested on: MCF7 breast
HS 578T breast = tested on: HS 578T breast
SF-295 CNS = tested on: SF-295 CNS
CCRF-CEM leukemia = tested on: CCRF-CEM leukemia
SN12C renal = tested on: SN12C renal
SF-268 CNS = tested on: SF-268 CNS
NCI-H522 lung = tested on: NCI-H522 lung
UO-31 renal = tested on: UO-31 renal
IGROV1 ovarian = tested on: IGROV1 ovarian
SF-539 CNS = tested on: SF-539 CNS
PC-3 prostate = tested on: PC-3 prostate
786-0 renal = tested on: 786-0 renal
NCI/ADR-RES ovarian = tested on: NCI/ADR-RES ovarian
COLO 205 colon = tested on: COLO 205 colon
A549 NSCLC = tested on: A549 NSCLC
UACC-62 melanoma = tested on: UACC-62 melanoma
NCI-H226 lung = tested on: NCI-H226 lung
HOP-92 NSCLC = tested on: HOP-92 NSCLC
NCI-H23 lung = tested on: NCI-H23 lung
HT29 colon = tested on: HT29 colon
MDA-N = tested on: MDA-N
SK-OV-3 ovarian = tested on: SK-OV-3 ovarian
UACC-257 melanoma = tested on: UACC-257 melanoma
ACHN renal = tested on: ACHN renal
BT-549 breast = tested on: BT-549 breast
HL-60(TB) leukemia = tested on: HL-60(TB) leukemia
HCT-15 colon = tested on: HCT-15 colon
SK-MEL-28 melanoma = tested on: SK-MEL-28 melanoma
HOP-62 NSCLC = tested on: HOP-62 NSCLC
HCT-116 colon = tested on: HCT-116 colon

Measured: TGI

CCN1CCCCC(=N\O)/C(=N/O)CCCC1
> 100 µM: all assays above
